# Biological target: T1, RORc ligand binding domain (Homo sapiens, UniProt P51449)
# T1 construct: host or cells: E. coli
# T1 sequence (P51449 269-508 limits assumed): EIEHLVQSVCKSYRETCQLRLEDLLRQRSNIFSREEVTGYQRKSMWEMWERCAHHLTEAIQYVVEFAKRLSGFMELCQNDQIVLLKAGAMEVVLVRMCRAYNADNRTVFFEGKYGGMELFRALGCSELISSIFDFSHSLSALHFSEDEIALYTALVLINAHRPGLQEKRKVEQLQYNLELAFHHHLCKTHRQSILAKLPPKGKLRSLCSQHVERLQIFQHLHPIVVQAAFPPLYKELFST
# Test: In vitro RORc ligand binding assay (25-[3H]hydroxycholesterol displacement, filter binding)
# Conditions: 6 nM 25-[3H]hydroxycholesterol, 0.6 ug/mL RORc receptor, 3 h at 25° C.
# Description: Example 17: In Vitro RORc Ligand Binding Assay
# This assay was used to determine a compound's potency in inhibiting activity of RORc by determining, Kiapp, IC50, or percent inhibition values.
# On day of the assay, 100 uL of 0.05% CHAPS (in deionized H2O) was added to all wells of the GFB Unifilter plate and allowed soak for 1 h. A wash buffer of 50 mM HEPES (pH 7.4), 150 mM NaCl, and 5 mM MgCl2 was prepared to wash the filter plate. To prepare an assay buffer, BSA was added to the wash buffer to reach 0.01% and DTT was added to reach 1 mM.
# For IC50 mode, 10 mM compound stocks were serially diluted in DMSO with DMSO to give 20× required final concentration in DMSO (15 uL compound+30 uL DMSO). The 20× compound stocks were diluted in DMSO with Assay Buffer 4-fold to reach 5× the final test concentration in 25% DMSO (10 uL compound+30 uL Assay Buffer). Solutions were mixed by aspiration several times with a pipette set on 50 uL volume. For the assay, 10 uL of 5× compound stock solutions in 25% DMSO were added to the assay plate in duplicate.
# For two point screening, 10 mM stock compound solutions were diluted in DMSO to obtain 200 uM (20× the high test concentration) and then diluted 10-fold further to reach 20 uM (20× the low test concentration). The 20× stocks were diluted 4-fold with Assay Buffer (10 uL compound+30 uL Assay Buffer) to reach 5× the test concentrations (50 uM and 5 uM) and 10 uL were added to two assay plates for the duplicate wells. With each concentration tested on 2 plates, each set of 80 compounds used 4 assay plates (1 uM and 10 uM, with n=2).
# 25-hydroxycholesterol (1 uM) was used to determine the level of NSB signal is prepared in DMSO as for compounds above, then diluted in Assay Buffer to give a final concentration of 5 uM. For 25-hydroxycholesterol in 25% DMSO/75% Assay Buffer; 10 uL per well was used for NSB samples. Wells for Total Binding and No Receptor sample determination contained 10 uL of 25% DMSO/75% Assay Buffer per well.
# 25-[^3H]hydroxycholesterol was diluted in Assay Buffer to obtain 15 nM and vortex to mix. Add 20 uL to all wells to reach 6 nM final concentration in the assay.
# Stock receptor solution was diluted in assay buffer to obtain 1.5 ug/mL in Assay Buffer. 20 uL was added to all wells. For No Receptor samples, 20 uL Assay Buffer was substituted for receptor solution.
# Assay plates were 96-well polypropylene V-bottom plates. 10 uL of 5× compound in 25% DMSO/75% Assay Buffer was added to Test wells. 10 uL of 25% DMSO/75% Assay Buffer was added to Total Binding or No Receptor wells. 10 uL of 5 uM 25-hydroxycholesterol in 25% DMSO/75% Assay Buffer was added to NSB wells. 20 uL of 15 nM 25-[^3H]hydroxycholesterol prepared in Assay Buffer was added to all wells. 20 uL of 1.5 ug/mL RORc receptor was added to wells (or […] Assay Buffer to No R wells). Following addition to the wells, the plates were incubated 3 h at 25° C.
# Using a Packard Filtermate Harvester, the filter plate were washed 4 times following transfer of the incubated samples. Plates were dry-filtered completely (2 h at 50° C. or overnight at room temperature). 50 uL Microscint 0 was added to all wells and read on Topcount protocol Inverted.
# Final concentrations were as follows: 50 mM HEPES buffer (pH 7.4); 150 mM NaCl; 1 mM DTT; 5 mM MgCl2; 0.01% BSA; 5% DMSO; 0.6 ug/mL RORc receptor; 6 nM 25-[^3H]hydroxycholesterol. For NSB wells, 1 uM 25-hydroxycholesterol was also present.
row,SMILES,IC50
1,"CC1(C)[C@@H]2CC[C@@]1(CN1CCNC1=O)c1nnc(-c3ccccc3F)cc12 [Example 34, 1-{[(5S,8R)-3-(2-fluorophenyl)-9,9-dimethyl-6,7-dihydro-5,8-methanocinnolin-8(5H)-yl]methyl}imidazolidin-2-one]",0.245 µM
2,"CC[C@]12CC[C@H](c3cc(-c4ccccc4F)nnc31)C2(C)C [Example 35, (5S,8R)-8-ethyl-3-(2-fluorophenyl)-9,9-dimethyl-5,6,7,8-tetrahydro-5,8-methanocinnoline]",0.037 µM
3,"CN(C)C(=O)C[C@]12CC[C@H](c3cc(-c4ccccc4F)nnc31)C2(C)C [Example 36, 2-[(5S,8S)-3-(2-fluorophenyl)-9,9-dimethyl-6,7-dihydro-5,8-methanocinnolin-8(5H)-yl]-N,N-dimethylacetamide]",5.17 µM
4,"CNC(=O)C[C@]12CC[C@H](c3cc(-c4ccccc4F)nnc31)C2(C)C [Example 37, 2-[(5S,8S)-3-(2-fluorophenyl)-9,9-dimethyl-6,7-dihydro-5,8-methanocinnolin-8(5H)-yl]-N-methylacetamide]",0.88 µM
5,"CC(C)OC[C@]12CC[C@H](c3cc(-c4ccccc4F)nnc31)C2(C)C [Example 38, (5S,8S)-3-(2-fluorophenyl)-9,9-dimethyl-8-[(propan-2-yloxy)methyl]-5,6,7,8-tetrahydro-5,8-methanocinnoline]",0.281 µM
6,"Cc1nc(C[C@]23CC[C@H](c4cc(-c5ccccc5F)nnc42)C3(C)C)no1 [Example 39, (5S,8S)-3-(2-fluorophenyl)-9,9-dimethyl-8-[(5-methyl-1,2,4-oxadiazol-3-yl)methyl]-5,6,7,8-tetrahydro-5,8-methanocinnoline]",1.73 µM
7,"COCC12CCC(c3cc(-c4ccccc4F)nnc31)C21CC1 (stereo not shown) [Example 40, 3′-(2-fluorophenyl)-8′-(methoxymethyl)-5′,6′,7′,8′-tetrahydro-spiro[cyclopropane-1,9′-[1,2]diaza[5,8]methanocinnoline]]",0.35 µM
8,"COCC[C@]12CC[C@H](c3cc(-c4ccccc4F)nnc31)C2(C)C [Example 41, (5S,8S)-3-(2-fluorophenyl)-8-(2-methoxyethyl)-9,9-dimethyl-5,6,7,8-tetrahydro-5,8-methanocinnoline]",0.054 µM
9,"Cc1noc(C[C@]23CC[C@H](c4cc(-c5ccccc5F)nnc42)C3(C)C)n1 [Example 42, (5S,8S)-3-(2-fluorophenyl)-9,9-dimethyl-8-[(3-methyl-yl)methyl]-5,6,7,8-tetrahydro-5,8-methanocinnoline]",0.238 µM
10,"CNC(=O)N(C)C[C@]12CC[C@H](c3cc(-c4ccccc4F)nnc31)C2(C)C [Example 43, 1-{[(5S,8R)-3-(2-fluorophenyl)-9,9-dimethyl-6,7-dihydro-5,8-methanocinnolin-8(5H)-yl]methyl}-1,3-dimethylurea]",0.624 µM
11,"Cc1ccn(C[C@]23CC[C@H](c4cc(-c5ccccc5F)nnc42)C3(C)C)n1 [Example 44, (5S,8R)-3-(2-fluorophenyl)-9,9-dimethyl-8-[(3-methyl-1H-pyrazol-1-yl)methyl]-5,6,7,8-tetrahydro-5,8-methanocinnoline]",0.607 µM
12,"CC1(C)[C@@H]2CC[C@@]1(Cc1noc(CO)n1)c1nnc(-c3ccccc3F)cc12 [Example 45, (3-{[(5S,8S)-3-(2-fluorophenyl)-9,9-dimethyl-6,7-dihydro-5,8-methanocinnolin-8(5H)-yl]methyl}-1,2,4-oxadiazol-5-yl)methanol]",0.756 µM
13,"CN1CCN(C[C@]23CC[C@H](c4cc(-c5ccccc5F)nnc42)C3(C)C)C1=O [Example 46, 1-{[(5S,8R)-3-(2-fluorophenyl)-9,9-dimethyl-6,7-dihydro-5,8-methanocinnolin-8(5H)-yl]methyl}-3-methylimidazolidin-2-one]",1.45 µM
14,"Cc1cnn(C[C@]23CC[C@H](c4cc(-c5ccccc5F)nnc42)C3(C)C)c1 [Example 47, (5S,8R)-3-(2-fluorophenyl)-9,9-dimethyl-8-[(4-methyl-1H-pyrazol-1-yl)methyl]-5,6,7,8-tetrahydro-5,8-methanocinnoline]",0.267 µM
15,"CC1(C)[C@@H]2CC[C@@]1(CN1CCN(CCN3CCOCC3)C1=O)c1nnc(-c3ccccc3F)cc12 [Example 48, 1-{[(5S,8R)-3-(2-fluorophenyl)-9,9-dimethyl-6,7-dihydro-5,8-methanocinnolin-8(5H)-yl]methyl}-3-[2-(morpholin-4-yl)ethyl]imidazolidin-2-one]",0.643 µM
16,"CC1(C)[C@@H]2CC[C@@]1(C(=O)N1CCC1)c1nnc(-c3c(F)cccc3F)cc12 [Example 49, azetidin-1-yl[(5S,8S)-3-(2,6-difluorophenyl)-9,9-dimethyl-6,7-dihydro-5,8-methanocinnolin-8(5H)-yl]methanone]",0.044 µM
17,"CC1(C)[C@@H]2CC(=O)[C@@]1(C)c1nnc(-c3ccccc3F)cc12 [Example 50, (5S,8R)-3-(2-fluorophenyl)-8,9,9-trimethyl-5,8-dihydro-5,8-methanocinnolin-7(6H)-one]",2.42 µM
18,"C=C1C[C@@H]2c3cc(-c4ccccc4F)nnc3[C@@]1(C)C2(C)C [Example 51, (5S,8R)-3-(2-fluorophenyl)-8,9,9-trimethyl-7-methylidene-5,6,7,8-tetrahydro-5,8-methanocinnoline]",0.657 µM
19,"CC1(C)[C@@H]2CC[C@@]1(C#N)c1nnc(-c3ccccc3F)cc12 [Example 52, (5S,8S)-3-(2-fluorophenyl)-9,9-dimethyl-6,7-dihydro-5,8-methanocinnoline-8(5H)-carbonitrile]",1.53 µM
20,"CNC(=O)[C@]12CC[C@H](c3cc(-c4c(F)cccc4F)nnc31)C2(C)C [Example 53, (5S,8S)-3-(2,6-difluorophenyl)-N,9,9-trimethyl-6,7-dihydro-5,8-methanocinnoline-8(5H)-carboxamide]",0.139 µM
21,"CC1(C)[C@@H]2CC[C@@]1(C(=O)N1CCOCC1)c1nnc(-c3c(F)cccc3F)cc12 [Example 54, [(5S,8S)-3-(2,6-difluorophenyl)-9,9-dimethyl-6,7-dihydro-5,8-methanocinnolin-8(5H)-yl](morpholin-4-yl)methanone]",0.042 µM
22,"CON(C)C(=O)[C@]12CC[C@H](c3cc(-c4c(F)cccc4F)nnc31)C2(C)C [Example 55, (5S,8S)-3-(2,6-difluorophenyl)-N-methoxy-N,9,9-trimethyl-6,7-dihydro-5,8-methanocinnoline-8(5H)-carboxamide]",0.124 µM
23,"CC1(C)[C@H]2CC[C@]1(CN1CCOCC1)c1nnc(-c3c(F)cccc3F)cc12 [Example 56, (5R,8S)-3-(2,6-difluorophenyl)-9,9-dimethyl-8-(morpholin-4-ylmethyl)-5,6,7,8-tetrahydro-5,8-methanocinnoline]",0.252 µM
24,"CC1(C)[C@H]2CC[C@]1(Cc1ncon1)c1nnc(-c3c(F)cccc3F)cc12 [Example 57, (5R,8R)-3-(2,6-difluorophenyl)-9,9-dimethyl-8-(1,2,4-oxadiazol-3-ylmethyl)-5,6,7,8-tetrahydro-5,8-methanocinnoline]",0.085 µM
25,"CC1(C)[C@H]2CC[C@]1(Cc1noc(O)n1)c1nnc(-c3c(F)cccc3F)cc12 [Example 58, 3-{[(5R,8R)-3-(2,6-difluorophenyl)-9,9-dimethyl-6,7-dihydro-5,8-methanocinnolin-8(5H)-yl]methyl}-1,2,4-oxadiazol-5-ol]",1.05 µM

# Reference: US9981916B2 (Genentech, Inc., priority 2013, dated 2018)
